The target in one data set is T1, DAUDA–FABP1 (Homo sapiens, UniProt P07148).
T1 construct: GST (N, cleaved yes); made in house; host or cells: Escherichia coli DH5α
T1 sequence (P07148 with tags, fused parts or gaps): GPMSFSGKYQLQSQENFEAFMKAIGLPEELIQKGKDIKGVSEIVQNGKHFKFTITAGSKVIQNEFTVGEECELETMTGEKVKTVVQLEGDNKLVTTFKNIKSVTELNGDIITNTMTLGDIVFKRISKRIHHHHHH
The data set can be described thus: Stopped-flow kinetics of palmitate binding to DAUDA–FABP1. The procedure:
As mentioned previously, palmitate was selected to measure binding kinetics to DAUDA–FABP1 because of the low Kd observed with the protein (Fig. 5D, Table 1). When a ligand binds to DAUDA-bound FABP1, DAUDA is displaced (potentially to the second ligand-binding site, forming a ternary complex; Figure 2, Figure 5 and Figure 2, Figure 5A) and attenuates the fluorescence of the system (Fig. 5). Taking advantage of this phenomenon, we preincubated FABP1 (0.5 μM) with DAUDA (0.5 μM) to form the fluorescent complex. This complex was then rapidly mixed with palmitate (0.5 μM to 25 μM), and the attenuation of fluorescence was monitored as palmitate binds and displaces DAUDA. The data were fit to double exponential equations, and the rate of initial binding was not observed to vary with palmitate concentration (Fig. 7). A kon value (k5) of 2.3 ± 0.2 × 10^7 M^−1 s^−1 was calculated from the data (Fig. 7A).
Figure 7 Kinetics of binding of palmitate to FABP1. A stoichiometric mixture of DAUDA and FABP1 (0.5 μM) was rapidly combined with (A) 0.5 μM, (B) 5 μM, (C) 12.5 μM, and (D) 25 μM palmitate, and the attenuation of fluorescence (λex = 335 nm, λem > 420 nm) was monitored over time (as FD → FDS, Fig. 5A). The plots were fit to double exponential equations, and the following rate constants for each phase were extracted: A, k1 11 ± 1 s^−1, k2 0.04 ± 0.003 s^−1; B, k1 16± 1s^−1, k2 0.017 ± 0.004 s^−1; C, k1 14 ± 1 s^−1, k2 0.05 ± 0.01 s^−1; D, k1 13 ± 1 s^−1, k2 0.07 ± 0.01 s^−1. Each trace corresponds to ≥6 averaged replicate traces. DAUDA, 11-dansylaminoundecanoic acid; FABP1, fatty acid binding protein.
The kon determination of FABP1 with palmitate was done in the same manner as described with DAUDA but with the modification that the solutions mixed in the stopped-flow spectrofluorometer were (A) FABP1 (1 μM) and DAUDA (1 μM, aliquoted from a stock solution prepared in K2CO3 [50 mM], see “Preparation of DAUDA stock solutions”) and (B) palmitate (1–50 μM, aliquoted from a stock solution prepared in K2CO3 [50 mM]). Both mixing solutions (2 ml) were prepared in potassium phosphate buffer (100 mM, pH 7.4). The data collection, processing, and analysis proceeded via the same steps described earlier. The only difference in interpretation is that the signal (binding of palmitate) displaces DAUDA in the FABP1-binding site, so we observe an attenuation of fluorescence.

The target in another data set is T2, P450 4A11 (Homo sapiens, UniProt Q02928).
T2 construct: made in house; host or cells: E. coli
T2 sequence (Q02928 5-519): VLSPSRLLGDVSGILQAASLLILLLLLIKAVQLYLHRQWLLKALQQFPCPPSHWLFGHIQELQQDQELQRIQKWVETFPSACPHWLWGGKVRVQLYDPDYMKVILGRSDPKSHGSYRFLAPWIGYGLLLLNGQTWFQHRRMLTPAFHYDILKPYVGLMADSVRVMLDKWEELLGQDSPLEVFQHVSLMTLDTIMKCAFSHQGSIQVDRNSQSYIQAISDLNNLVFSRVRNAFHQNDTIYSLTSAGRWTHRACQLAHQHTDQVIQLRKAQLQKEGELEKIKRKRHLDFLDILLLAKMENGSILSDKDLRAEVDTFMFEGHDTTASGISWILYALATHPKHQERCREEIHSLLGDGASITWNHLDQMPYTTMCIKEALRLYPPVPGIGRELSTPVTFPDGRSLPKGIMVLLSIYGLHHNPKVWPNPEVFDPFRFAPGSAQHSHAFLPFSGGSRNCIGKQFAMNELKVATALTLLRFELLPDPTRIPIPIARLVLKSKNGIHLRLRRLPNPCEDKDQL
T2 sequence (P07148 with tags, fused parts or gaps partner): T1 sequence (P07148 with tags, fused parts or gaps)
The data set can be described thus: Fluorescence titration of Alexa-FABP1 with P450 4A11. It is filed as binding. The following applies: 10 mM potassium phosphate pH 7.4, quadratic fit. How it is done:
The Alexa-FABP1 construct was tested for P450 binding in a fluorescence titration with P450 4A11.
Figure 10 Binding of Alexa-FABP1 to P450 4A11.A, equilibrium binding titration of Alexa-FABP1 (25 nM) with P450 4A11 as the titrant (0–50 nM). Titrations were performed in 10 mM (closed circles) or 100 mM (open circles) potassium phosphate buffer (pH 7.4). A control reaction was performed with P450 101A1 (P450cam) in 100 mM KPhos (open squares). The change in fluorescence upon protein–protein binding was normalized to the corresponding change in a buffer control. […] Each data point corresponds to one independent replicate, ≥3 biological replicates were collected to confirm the effect. B, kinetics of binding of Alexa-FABP1 (0.125 μM) and P450 4A11 (0.125 μM). Six traces were averaged, and the data were fit to a single exponential curve (in red). The extracted binding rate was 2.0 ± 0.2 s^−1. FABP1, fatty acid binding protein.
Alexa-FABP1 (25 nM [estimated by an asborbance at 280 nm prior to conjugation reaction, accounting for dilution, and assuming no protein loss during the reaction]) was prepared in potassium phosphate buffer (10 mM or 100 mM, pH 7.4) in a 1 ml glass cuvette. A buffer baseline was recorded using an OLIS DM-45 spectrofluorometer (1.24 mm slit width) with excitation wavelength of 470 nm and scanning emission spectra from 500 to 600 nm. P450 4A11 (stored in 100 mM potassium phosphate buffer [pH 7.4] containing 20% glycerol) was titrated (0–50 nM) into the Alexa-FABP1 solution. The same experiment was repeated but with the P450 4A11 buffer used as the titrant to normalize the data for any solvent effect. […] As stimulation was observed by the P450 interaction, the value of one was subtracted from the normalized fluorescence values so that the curve would have an (x, y) intercept of (0, 0). Kd values were calculated fitting plots of the normalized fluorescence at emission maximum versus concentration of P450 4A11 using a quadratic equation in GraphPad Prism software.

In the case of `CCCCCCCCCCCCCCCC(=O)O` [Palmitate (C16), palmitate], the “k1 (fast phase), palmitate binding to DAUDA–FABP1” value at DAUDA–FABP1 (0.5 μM palmitate) came out at 11 ± 1 s⁻¹; at DAUDA–FABP1 (5 μM palmitate) it was 16 ± 1 s⁻¹; on DAUDA–FABP1 (12.5 μM palmitate), 14 ± 1 s⁻¹; at DAUDA–FABP1 (25 μM palmitate), 13 ± 1 s⁻¹. The “k2 (slow phase), palmitate binding to DAUDA–FABP1” value came to 0.04 ± 0.003 s⁻¹ on DAUDA–FABP1 (0.5 μM palmitate), 0.017 ± 0.004 s⁻¹ at DAUDA–FABP1 (5 μM palmitate), 0.05 ± 0.01 s⁻¹ at DAUDA–FABP1 (12.5 μM palmitate) and 0.07 ± 0.01 s⁻¹ on DAUDA–FABP1 (25 μM palmitate). Further, on DAUDA–FABP1 (DAUDA and FABP1 0.5 μM each, read-out: kon of palmitate to DAUDA–FABP1 (k5)), the kon stood at 2.3e+07 M⁻¹ s⁻¹.

Take “FABP1: delipidated recombinant liver fatty acid binding protein with C-terminal hexahistidine tag”: in the data set with P450 4A11, the Kd is roughly 3 nM.
